Measured values: patent US8518443B2, “Opioid agonist formulations with releasable and sequestered antagonist” (Purdue Pharma, L.P., priority 2001, dated 2013)
Counter-ions that a name gives are not always drawn. Like-named read-outs stand apart in the source and are kept apart here.

Experiments:
[1] = type: in vivo
Text: In certain preferred embodiments, the opioid agonist is hydrocodone or oxycodone.

[2] = after oral doses; cited from earlier work
[3] = cited from earlier work
[4] = following oral administration; cited from earlier work
opioid receptors = conditions: daily dosage of 50 mg; cited from earlier work
[5] = in comparison to a 15 mg dose of hydrocodone

| Compound | Equianalgesic dose, Calculated Dose [1, 5] [mg] | other results |
| --- | --- | --- |
| COc1ccc2c3c1O[C@H]1[C@@H](O)C=C[C@H]4[C@@H](C2)N(C)CC[C@@]341 [Codeine] | 90.0 |  |
| COc1ccc2c3c1OC1C(=O)CC[C@H]4[C@@H](C2)N(C)CC[C@]314 (stereo partly drawn) [Hydrocodone, 4,5-epoxy-3-methoxy-17-methylmorphinan-6-one] | 15.0 |  |
| CN1CC[C@]23CCCC[C@H]2[C@H]1Cc1ccc(O)cc13 [Levorphanol] | 1.8 |  |
| CCC(=O)C(CC(C)N(C)C)(c1ccccc1)c1ccccc1 (stereo not drawn) [Methadone] | 9.0 |  |
| CN1CC[C@]23c4c5ccc(O)c4O[C@H]2[C@@H](O)C=C[C@H]3[C@H]1C5 [Morphine] |  | Equianalgesic dose, Calculated Dose ([1]; in vivo): 27.0 mg |
| COc1ccc2c3c1O[C@H]1C(=O)CC[C@@]4(O)[C@@H](C2)N(C)CC[C@]314 [Oxycodone, 4,5-expoxy-14-hydroxy-3-methoxy-17-methylmorphinan-6-one] | 13.5 |  |
| C[C@H]1[C@H]2Cc3ccc(O)cc3[C@]1(C)CCN2CC1CC1 [cyclazocine] |  | duration of action [2]: ~24 h |
| O=C1CC[C@@]2(O)[C@H]3Cc4ccc(O)c5c4[C@@]2(CCN3CC2CC2)[C@H]1O5 [hydrochloride salt of naltrexone] |  | solubility in water [3]: about 100 mg/cc |
| O=C1CC[C@@]2(O)[C@H]3Cc4ccc(O)c5c4[C@@]2(CCN3CC2CC2)[C@H]1O5 [naltrexone] |  | oral bioavailability [4]: 5-40%; blockade of the actions of parenterally administered opioids (opioid receptors): adequate clinical blockade; duration of action [2]: ~24 h |
| Meperidine | 135.0 |  |
